From patent US20160263097A1 (Bristol-Myers Squibb Company, priority 2012, published 2016)
Values joined by “and” are separate entries in the source; they are usually repeats but may differ in a detail not shown here. Equal values may be shown once.

Assays:
Type in all cases: in vivo, human
[1] = Study 1: open-label 2-way crossover relative bioavailability, tablet vs oral liquid formulation; conditions: for Tmax / AUC(0-t) / AUC(0-inf) / half-life: human, plasma; for half-life: read-out: T1/2 Mean (converted)
Method: (§1) Frel of a crushed tablet administered via NGT versus oral liquid formulation was also evaluated. […] The effect of different flush media [D5W and infant formula (Similac®)] and coadministered nutritional supplement (Boost Plus®) on the liquid formulation's bioavailability was assessed.
(§2) Three open-label, randomized, crossover studies were conducted. […] Serial pharmacokinetics samples were collected. […] Frel was defined as the ratio of AUCinf.
(§3) Key exclusion criteria included: (i) any history or evidence of abnormal bleeding or coagulation disorders, intracranial hemorrhage, or abnormal bleeding; (ii) any gastrointestinal surgery that could impact upon the absorption of study drug; and (iii) current or recent (within 3 months) gastrointestinal disease including, but not limited to dyspepsia, gastrointestinal ulcers, esophageal or gastric varices, or hemorrhoids.

[2] = Study 2: open-label 3-way crossover, liquid formulation oral vs NGT with D5W or infant formula flush; conditions: for half-life / Tmax / AUC(0-t) / AUC(0-inf): human, plasma, 5 mg
Method: as §1, §2, §3

[3] = Study 3: open-label 3-way crossover, liquid formulation oral vs NGT with Boost Plus vs crushed tablet via NGT; conditions: for half-life / AUC(0-t) / AUC(0-inf) / Tmax: human, plasma, 5 mg; for Tmax: read-out: Tmax Median
Method: The apixaban liquid formulation was administered orally (PO), via nasogastric tube (NGT) with different flush media, or with an enteral meal (BOOST Plus®). Frel of a crushed tablet administered via NGT versus oral liquid formulation was also evaluated. […] The effect of different flush media [D5W and infant formula (Similac®)] and coadministered nutritional supplement (Boost Plus®) on the liquid formulation's bioavailability was assessed.
as §2, §3

[4] = Safety assessments in the studies (adverse events, vital signs, ECGs, laboratory tests); conditions: healthy subjects in the studies, 5 or 10 mg single doses
Text: Safety assessments were made based on adverse event reports and the results of vital sign measurements, ECGs, physical examinations, and clinical laboratory tests.

[5] = Study 1, Treatment A: 2 × 5 mg Phase 3 tablets, oral, healthy subjects

COc1ccc(-n2nc(C(N)=O)c3c2C(=O)N(c2ccc(N4CCCCC4=O)cc2)CC3)cc1 [Apixaban, 4,5,6,7-tetrahydro-1-(4-methoxyphenyl)-7-oxo-6-[4-(2-oxo-1-piperidinyl)phenyl]-1H-pyrazolo[3,4-c]pyridine-3-carboxamide]
Cmax Adj.Geo.Mean ([1]; Study 1, Treatment A: 2 × 5 mg Phase 3 tablets): 294 ng/mL
Cmax Geo. Mean [1, 5]: 294 ng/mL
Tmax Median [1, 5]: 2 h
Cmax Adj.Geo.Mean ([1]; Study 1, Treatment B: 25 mL × 0.4 mg/mL liquid formulation): 287 ng/mL
Cmax Geo. Mean ([1]; Study 1, Treatment B: 25 mL × 0.4 mg/mL liquid formulation, oral, healthy subjects): 287 ng/mL
Tmax ([1]; 10 mg, Study 1, Treatment B: 25 mL × 0.4 mg/mL liquid formulation, oral, healthy subjects, read-out: Tmax Median): 2 h
AUC(0-t) ([1]; oral, 10 mg, Study 1, Treatment A: 2 × 5 mg Phase 3 tablets, read-out: AUC(0-T) Adj.Geo.Mean): 2670 ng·h/mL
AUC(0-inf) ([1]; oral, 10 mg, Study 1, Treatment A: 2 × 5 mg Phase 3 tablets, read-out: AUCinf Adj.Geo.Mean): 2710 ng·h/mL
AUC(0-t) ([1]; oral, 10 mg, Study 1, Treatment B: 25 mL × 0.4 mg/mL liquid formulation, read-out: AUC(0-T) Adj.Geo.Mean): 2780 ng·h/mL
AUC(0-inf) ([1]; oral, 10 mg, Study 1, Treatment B: 25 mL × 0.4 mg/mL liquid formulation, read-out: AUCinf Adj.Geo.Mean): 2850 ng·h/mL
AUC(0-t) ([1]; po, 10 mg, Study 1, Treatment A: 2 × 5 mg Phase 3 tablets, oral, healthy subjects, read-out: AUC(0-T) Geo. Mean): 2660 ng·h/mL
AUC(0-inf) ([1]; po, 10 mg, Study 1, Treatment A: 2 × 5 mg Phase 3 tablets, oral, healthy subjects, read-out: AUCinf Geo. Mean): 2710 ng·h/mL
half-life ([1]; po, 10 mg, Study 1, Treatment A: 2 × 5 mg Phase 3 tablets, oral, healthy subjects): 12.3 h
AUC(0-t) ([1]; po, 10 mg, Study 1, Treatment B: 25 mL × 0.4 mg/mL liquid formulation, oral, healthy subjects, read-out: AUC(0-T) Geo. Mean): 2790 ng·h/mL
AUC(0-inf) ([1]; po, 10 mg, Study 1, Treatment B: 25 mL × 0.4 mg/mL liquid formulation, oral, healthy subjects, read-out: AUCinf Geo. Mean): 2860 ng·h/mL
half-life ([1]; po, 10 mg, Study 1, Treatment B: 25 mL × 0.4 mg/mL liquid formulation, oral, healthy subjects): 13.8 h
Tmax ([1]; summary over all treatments of Studies 1-3 except BOOST Plus, read-out: Tmax median): 0.5 to 2 h
Cmax Geo. Mean ([2]; Study 2, Treatment A: 5 mg (12.5 mL) liquid formulation by mouth via oral syringe): 189 ng/mL
Cmax Adj.Geo.Mean ([2]; Study 2, Treatment A: liquid formulation by mouth): 191 ng/mL
Cmax Adj.Geo.Mean ([2]; Study 2, Treatment B: liquid formulation via NGT, D5W flush): 182 ng/mL
Frel Geo. Mean ([2]; Study 2, Treatment C (NGT, infant formula flush) versus oral liquid formulation): 0.922
Cmax Geo. Mean ([2]; Study 2, Treatment C: 5 mg (12.5 mL) liquid formulation via NGT followed by 60 mL of infant formula via NGT): 153 ng/mL
Cmax Adj.Geo.Mean ([2]; Study 2, Treatment C: liquid formulation via NGT, infant formula flush): 154 ng/mL
Frel ([2]; Study 2, liquid formulation via NGT flushed with 60 mL infant formula versus oral liquid formulation): 92.2% and 92%
half-life ([2]; Study 2, across the 3 treatments, read-out: mean T1/2 (converted)): ~10.5 h
Tmax ([2]; Study 2, across the 3 treatments, read-out: median Tmax): 0.5 to 1 h
AUC(0-t) ([2]; oral, Study 2, Treatment A: liquid formulation by mouth, read-out: AUC(0-T) Adj.Geo.Mean): 1270 ng·h/mL
AUC(0-inf) ([2]; oral, Study 2, Treatment A: liquid formulation by mouth, read-out: AUCinf Adj.Geo.Mean): 1290 ng·h/mL
AUC(0-t) ([2]; other: via nasogastric tube (NGT), Study 2, Treatment B: liquid formulation via NGT, D5W flush, read-out: AUC(0-T) Adj.Geo.Mean): 1230 ng·h/mL
AUC(0-inf) ([2]; other: via nasogastric tube (NGT), Study 2, Treatment B: liquid formulation via NGT, D5W flush, read-out: AUCinf Adj.Geo.Mean): 1250 ng·h/mL
AUC(0-t) ([2]; other: via nasogastric tube (NGT), Study 2, Treatment C: liquid formulation via NGT, infant formula flush, read-out: AUC(0-T) Adj.Geo.Mean): 1170 ng·h/mL
AUC(0-inf) ([2]; other: via nasogastric tube (NGT), Study 2, Treatment C: liquid formulation via NGT, infant formula flush, read-out: AUCinf Adj.Geo.Mean): 1190 ng·h/mL
AUC(0-t) ([2]; po, Study 2, Treatment A: 5 mg (12.5 mL) liquid formulation by mouth via oral syringe, read-out: AUC(0-T) Geo. Mean): 1260 ng·h/mL
AUC(0-inf) ([2]; po, Study 2, Treatment A: 5 mg (12.5 mL) liquid formulation by mouth via oral syringe, read-out: AUCinf Geo. Mean): 1280 ng·h/mL
half-life ([2]; po, Study 2, Treatment A: 5 mg (12.5 mL) liquid formulation by mouth via oral syringe, read-out: T1/2 Mean (converted)): 10.5 h
Tmax ([2]; po, Study 2, Treatment A: 5 mg (12.5 mL) liquid formulation by mouth via oral syringe, read-out: Tmax Median): 0.517 h
AUC(0-t) ([2]; po, Study 2, Treatment B: 5 mg (12.5 mL) liquid formulation via NGT followed by 60 mL of D5W via NGT, read-out: AUC(0-T) Geo. Mean): 1210 ng·h/mL
AUC(0-inf) ([2]; po, Study 2, Treatment B: 5 mg (12.5 mL) liquid formulation via NGT followed by 60 mL of D5W via NGT, read-out: AUCinf Geo. Mean): 1240 ng·h/mL
half-life ([2]; po, Study 2, Treatment B: 5 mg (12.5 mL) liquid formulation via NGT followed by 60 mL of D5W via NGT, read-out: T1/2 Mean (converted)): 10.4 h
Tmax ([2]; po, Study 2, Treatment B: 5 mg (12.5 mL) liquid formulation via NGT followed by 60 mL of D5W via NGT, read-out: Tmax Median): 1 h
AUC(0-t) ([2]; po, Study 2, Treatment C: 5 mg (12.5 mL) liquid formulation via NGT followed by 60 mL of infant formula via NGT, read-out: AUC(0-T) Geo. Mean): 1150 ng·h/mL
AUC(0-inf) ([2]; po, Study 2, Treatment C: 5 mg (12.5 mL) liquid formulation via NGT followed by 60 mL of infant formula via NGT, read-out: AUCinf Geo. Mean): 1180 ng·h/mL
half-life ([2]; po, Study 2, Treatment C: 5 mg (12.5 mL) liquid formulation via NGT followed by 60 mL of infant formula via NGT, read-out: T1/2 Mean (converted)): 10.6 h
Tmax ([2]; po, Study 2, Treatment C: 5 mg (12.5 mL) liquid formulation via NGT followed by 60 mL of infant formula via NGT, read-out: Tmax Median): 1 h
Cmax Geo. Mean (% CV) ([3]; Study 3, TRT A: 5 mg oral liquid formulation (0.4 mg/mL × 12.5 mL) administered orally): 177 ng/mL
Cmax Adj.Geo.Mean ([3]; Study 3, TRT A: 5 mg oral liquid formulation administered orally): 179 ng/mL
Frel Geo. Mean ([3]; Study 3, TRT B (liquid formulation after Boost Plus via NGT) versus oral liquid formulation): 0.813
Cmax Geo. Mean (% CV) ([3]; Study 3, TRT B: 5 mg oral liquid formulation (0.4 mg/mL × 12.5 mL) after Boost Plus via NGT): 121 ng/mL
Cmax Adj.Geo.Mean ([3]; Study 3, TRT B: 5 mg oral liquid formulation after Boost Plus via NGT): 122 ng/mL
Frel Geo. Mean ([3]; Study 3, TRT C (crushed tablet via NGT) versus oral liquid formulation): 0.951
Cmax Adj.Geo.Mean ([3]; Study 3, TRT C: 5 mg crushed tablet via NGT): 158 ng/mL
Cmax Geo. Mean (% CV) ([3]; Study 3, TRT C: 5 mg crushed tablet via NGT (suspended in 60 mL D5W)): 158 ng/mL
Frel ([3]; Study 3, crushed tablet via NGT versus oral liquid formulation): 95%
Frel ([3]; Study 3, liquid formulation with BOOST Plus via NGT versus oral liquid formulation): 81%
half-life ([3]; Study 3, between the 3 treatments, read-out: mean T1/2): 9.6 to 11.2 h
AUC(0-t) ([3]; other: via nasogastric tube (NGT), Study 3, TRT C: 5 mg crushed tablet via NGT (suspended in 60 mL D5W), read-out: AUC(0-T) Geo. Mean (% CV)): 1300 ng·h/mL
AUC(0-inf) ([3]; other: via nasogastric tube (NGT), Study 3, TRT C: 5 mg crushed tablet via NGT (suspended in 60 mL D5W), read-out: AUCinf Geo. Mean (% CV)): 1320 ng·h/mL
half-life ([3]; other: via nasogastric tube (NGT), Study 3, TRT C: 5 mg crushed tablet via NGT (suspended in 60 mL D5W), read-out: T1/2 Mean (converted)): 10.4 h
Tmax ([3]; other: via nasogastric tube (NGT), Study 3, TRT C: 5 mg crushed tablet via NGT (suspended in 60 mL D5W)): 1 h
AUC(0-t) ([3]; other: via nasogastric tube (NGT), Study 3, TRT C: 5 mg crushed tablet via NGT, read-out: AUC(0-T) Adj.Geo.Mean): 1300 ng·h/mL
AUC(0-inf) ([3]; other: via nasogastric tube (NGT), Study 3, TRT C: 5 mg crushed tablet via NGT, read-out: AUCinf Adj.Geo.Mean): 1330 ng·h/mL
AUC(0-t) ([3]; po, Study 3, TRT A: 5 mg oral liquid formulation (0.4 mg/mL × 12.5 mL) administered orally, read-out: AUC(0-T) Geo. Mean (% CV)): 1350 ng·h/mL
AUC(0-inf) ([3]; po, Study 3, TRT A: 5 mg oral liquid formulation (0.4 mg/mL × 12.5 mL) administered orally, read-out: AUCinf Geo. Mean (% CV)): 1380 ng·h/mL
half-life ([3]; po, Study 3, TRT A: 5 mg oral liquid formulation (0.4 mg/mL × 12.5 mL) administered orally, read-out: T1/2 Mean (converted)): 11.2 h
Tmax ([3]; po, Study 3, TRT A: 5 mg oral liquid formulation (0.4 mg/mL × 12.5 mL) administered orally): 1 h
AUC(0-t) ([3]; po, Study 3, TRT A: 5 mg oral liquid formulation administered orally, read-out: AUC(0-T) Adj.Geo.Mean): 1370 ng·h/mL
AUC(0-inf) ([3]; po, Study 3, TRT A: 5 mg oral liquid formulation administered orally, read-out: AUCinf Adj.Geo.Mean): 1400 ng·h/mL
AUC(0-t) ([3]; po, Study 3, TRT B: 5 mg oral liquid formulation (0.4 mg/mL × 12.5 mL) after Boost Plus via NGT, read-out: AUC(0-T) Geo. Mean (% CV)): 1100 ng·h/mL
AUC(0-inf) ([3]; po, Study 3, TRT B: 5 mg oral liquid formulation (0.4 mg/mL × 12.5 mL) after Boost Plus via NGT, read-out: AUCinf Geo. Mean (% CV)): 1120 ng·h/mL
half-life ([3]; po, Study 3, TRT B: 5 mg oral liquid formulation (0.4 mg/mL × 12.5 mL) after Boost Plus via NGT, read-out: T1/2 Mean (converted)): 9.56 h
Tmax ([3]; po, Study 3, TRT B: 5 mg oral liquid formulation (0.4 mg/mL × 12.5 mL) after Boost Plus via NGT): 3 h
AUC(0-t) ([3]; po, Study 3, TRT B: 5 mg oral liquid formulation after Boost Plus via NGT, read-out: AUC(0-T) Adj.Geo.Mean): 1110 ng·h/mL
AUC(0-inf) ([3]; po, Study 3, TRT B: 5 mg oral liquid formulation after Boost Plus via NGT, read-out: AUCinf Adj.Geo.Mean): 1140 ng·h/mL
safety and tolerability [4]: safe and well tolerated
